Data set [1] has as its target T1, taurine transporter (TauT) (Homo sapiens, UniProt P31641).
T1 sequence (P31641 1-620): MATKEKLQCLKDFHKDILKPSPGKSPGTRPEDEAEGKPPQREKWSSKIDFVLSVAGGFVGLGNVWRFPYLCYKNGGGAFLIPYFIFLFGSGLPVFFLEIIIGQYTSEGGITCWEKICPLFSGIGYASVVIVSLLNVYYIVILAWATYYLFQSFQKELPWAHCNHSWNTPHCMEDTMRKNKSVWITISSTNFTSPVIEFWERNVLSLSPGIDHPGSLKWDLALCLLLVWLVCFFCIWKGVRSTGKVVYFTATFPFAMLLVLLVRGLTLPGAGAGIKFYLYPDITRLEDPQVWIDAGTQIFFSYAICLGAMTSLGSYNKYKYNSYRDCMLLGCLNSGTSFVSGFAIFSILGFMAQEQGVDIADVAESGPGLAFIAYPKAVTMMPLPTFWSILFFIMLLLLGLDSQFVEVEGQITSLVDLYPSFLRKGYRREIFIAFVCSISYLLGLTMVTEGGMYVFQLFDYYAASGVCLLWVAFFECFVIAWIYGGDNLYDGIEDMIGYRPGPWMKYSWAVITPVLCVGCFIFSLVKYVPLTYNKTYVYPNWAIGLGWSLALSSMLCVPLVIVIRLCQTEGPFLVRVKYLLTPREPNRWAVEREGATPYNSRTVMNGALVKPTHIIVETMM
As to the kind of experiment: cryo-EM structure. The class given is cell-based.

Substrate in data set [2]: NCCS(=O)(=O)O
Kind of data set: cells, lysate or membranes. The class given is cell-based, Homo sapiens. The following applies: Na+ and Cl- central pocket.

Substitutions are numbered along the chain they refer to. Names and notes keep the numbering of the source.

This passage reports IC50 and Km results from publication PMC12227546 (Nature Communications, 2025).

Broadly, the IC50 is the point on the concentration scale where inhibition reaches its midpoint. Lower therefore signals higher potency. Usually Km stands for the substrate concentration at which the rate is half of its maximum.

`NCCCC(=O)O` [GABA] displayed an IC50 in data set [1] of 1300 µM.

B1: taurine transporter (TauT) (Homo sapiens; F58A) (protein)
chain: T1 sequence (P31641 1-620) with F58A
Take B1: in data set [2], the Km was 166.2 µM.
